Measurements: US20130065226A1, “METHOD OF DETERMINING DOSE AND ADMINISTRATION OF STATIN” (TOHOKU UNIVERSITY, priority 2011, published 2013)
Like-named read-outs stand apart in the source and are kept apart here. Where a SMILES comes first, the peptide text is derived from it. The star is where a group is joined. Cbz = O=C(OCc1ccccc1)*

Assays:
[1] = Body weight, blood pressure and plasma lipid profiles in AngII-infused mice; assay type: in vivo; conditions: ATOR 10 mpk, PRA 50 mpk; for Systolic blood pressure / HDL cholesterol / LDL-cholesterol / Total cholesterol / Triglyceride: 2 weeks; for Systolic blood pressure / Body weight: mean ± s.e.m.; for HDL cholesterol / LDL-cholesterol / Total cholesterol / Triglyceride: plasma; for Body weight: gavage daily 2 weeks
Protocol: (§1) An AngII-induced cardiovascular hypertrophy model in mice was produced according to Yagi et al.'s literature (Yagi, S. et al., Circ. Res. 102, 68-76 (2008)). Statins were administered to mice by gavage every day for 2 weeks. After 2 weeks of sustained AngII administration by means of osmotic pump, the present inventors observed the left ventricular function and measured the weight of the heart of each mouse by means of an ultrasound imaging system. […] After a 2 weeks washout period, the subjects were switched to take an alternative medicine for additional 2 weeks.
The present inventors conducted all mouse experiments in accordance with experimental protocols that were approved by the Animal Care and Use Committee of the Tohoku University Graduate School of Medicine. The present inventors used an AngII-induced cardiovascular hypertrophy model (see Yagi, S . et al . , Circ. Res. 102. 68-76 (2008)) to assess the effect of SmgGDS deficiency on the pleiotropic effects of low-dose statins. The present inventors infused 2.0 mg kg^−1 day^−1 or saline for 2 weeks in 10-week-old male SmgGDS^+/+ littermate control mice and SmgGDS^+/− mice. The inventors dissolved AngII in sterile saline and infused it via osmotic mini-pumps (Alzet model 2002, Alze Corp.). The inventors anesthetized the animals with isofluorane. Then, the inventors prepared subcutaneous pockets in the isofluorane-anesthetized mice and placed the pumps into the subcutaneous pockets through a small incision in the back that was closed by suturing. Either statin or vehicle was administered to both the AngII-infused and saline-infused mouse by gavage every day for 2 weeks . All incision sites rapidly healed without any infection. Systolic blood pressure was measured by using a non-invasive tail-cuff system (MK-2000, Muromachi) 2 weeks after the pump implantation. Plasma lipids (triglycerides, total cholesterol, LDL-cholesterol and HDL-cholesterol) were analyzed with the high-performance liquid chromatography system of Skylight Biotech. Echocardiographic analysis was performed by using an ultrasound imaging system (Vevo 2100, VisualSonic Inc.). The mice were shaved and M-mode images of the left ventricle were recorded while the heart rate was kept at about 500 bpm.

[2] = Plasma concentration of statins in mice; assay type: in vivo; conditions: male, mouse, oral, 24 hours after last of 2-week gavage, atorvastatin 10 mg/kg/day, pravastatin 50 mg/kg/day, read-out: Plasma concentration of statin
Protocol: Furthermore, the present inventors administrated each statin by gavage for 2 weeks from the start of AngII administration ([…], 10 mg/kg/day or pravastatin, 50 mg/kg/day) to the each group of mouse. The present inventors measured plasma concentration of statins 24 hours after the last administration (Table 3).

[3] = Human study: plasma lipid profiles, glucose, insulin and HOMA-IR; assay type: in vivo; conditions: for HDL-cholesterol, Change (%) / LDL-cholesterol, Change (%) / MDA-LDL, Change (%) / RLP cholesterol, Change (%) / Total cholesterol, Change (%) / Triglyceride, Change (%) / HDL-cholesterol, After 2 weeks / LDL-cholesterol, After 2 weeks / MDA-LDL, After 2 weeks / RLP cholesterol, After 2 weeks / Triglyceride, After 2 weeks / Total cholesterol, After 2 weeks: healthy volunteers; for HDL-cholesterol, Change (%) / LDL-cholesterol, Change (%) / MDA-LDL, Change (%) / RLP cholesterol, Change (%) / Total cholesterol, Change (%) / Triglyceride, Change (%): 20 mg day^−1, after 2 weeks vs baseline; for HDL-cholesterol, After 2 weeks / LDL-cholesterol, After 2 weeks / MDA-LDL, After 2 weeks / RLP cholesterol, After 2 weeks / Triglyceride, After 2 weeks / Total cholesterol, After 2 weeks: fasting; for Total cholesterol, After 2 weeks: mean ± s.e.m., n = 20
Source text: (§2) The exclusion criteria included abnormal liver or kidney dysfunction before and during the statin administration and treatment.

SmgGDS [4] = experiment: Human study: SmgGDS expression in circulating leukocytes (western blot); assay type: in vivo; conditions: for increase of SmgGDS in leukocytes, average of the 20 volunteers: 20 mg, 2 weeks, vs before administration
Source text: as §2

SmgGDS [5] = experiment: SmgGDS expression in HUVEC after 24 h drug treatment (western blot); assay type: cell-based, human; conditions: for SmgGDS expression level in HUVEC: 24 h treatment, atorvastatin 10 and 30 μM, pitavastatin 1 and 10 μM; for inhibition of the statin-induced increase in SmgGDS expression level: FPP or GGPP 10 μM co-treated with atorvastatin or pitavastatin, 24 h
SmgGDS [6] = experiment: Protein expression in HUVEC subcellular fractions: SmgGDS; assay type: cell-based, human; conditions: HUVEC cytoplasm fraction, 24 h; atorvastatin 10 μM, pitavastatin 1 μM
Racl [7] = experiment: Racl expression in control or SmgGDS siRNA-transfected HUVEC; assay type: cell-based, human; conditions: control siRNA-transfected HUVEC, statin 24 h
Protocol: as §1
(§3) Multiple siRNAs duplexes specific to SmgGDS were purchased from Qiagen. A functional non-targeting siRNA that was bioinformatically designed by Qiagen was used as a control. Either 10 nM control siRNA or 10 nM siRNA that was specific to SmgGDS was transfected into HUVEC with HiPerFect transfection Reagent (Qiagen). After 72 hour post-transfection, the cells were analyzed by either Wester blot or ROS analysis.

[8] = test system: AngII-induced production of ROS in HUVEC; experiment: Reactive oxygen species analysis (DCF staining) in siRNA-transfected HUVEC; assay type: cell-based, human; conditions: atorvastatin 1 μM or pitavastatin 0.1 μM 24 h, then 1 μM AngII 3 h
Protocol: as §1, §3
The present inventors treated HUVEC with AngII (1μM, Wako) at 37° C. in 5% CO2 for 3 hours, washed them with PBS and stained them with 2,7-dichlorofluoroscein diacetate (H2DCF-DA) (5 μM, Cayman) at 37° C. for 30 minutes to visualize the ROS production as green fluorescence (488 nm) through a fluorescence microscope (BIOREVO, Keyence). The relative fluorescence intensity was measured by means of BZ-II analyzer (Keyence) software.

Racl [9] = conditions: normal and healthy volunteers, 20 mg day^−1 for 1 week; cited from earlier work
RhoA/Rho-kinase = conditions: normal and healthy volunteers, 20 mg day^−1 for 1 week; cited from earlier work
Racl [10] = experiment: Protein expression in HUVEC subcellular fractions: Racl (with or without proteasome inhibitor MG-132)
[11] = control siRNA-transfected HUVEC

## CC[C@H](C)C(=O)O[C@H]1C[C@H](O)C=C2C=C[C@H](C)[C@H](CC[C@@H](O)C[C@@H](O)CC(=O)O)[C@H]21 [pravastatin]
[1]; AngII-infused SmgGDS+/+ mice
  Systolic blood pressure: 141.0 ± 7.3 mmHg
  HDL cholesterol: 88.0 ± 4.5 mg/dL
  LDL-cholesterol: 16.1 ± 2.3 mg/dL
  Total cholesterol: 111.2 ± 6.8 mg/dL
  Triglyceride: 47.3 ± 10.9 mg/dL
[1]; AngII-infused SmgGDS+/− mice
  Systolic blood pressure: 146.7 ± 6.6 mmHg
  HDL cholesterol: 94.0 ± 4.1 mg/dL
  LDL-cholesterol: 16.1 ± 1.6 mg/dL
  Total cholesterol: 116.7 ± 5.7 mg/dL
  Triglyceride: 56.6 ± 7.3 mg/dL
[2]; AngII-infused SmgGDS+/+ mice
  concentration at 24 h: 0.43 ± 0.08 ng/mL
[2]; AngII-infused SmgGDS+/− mice
  concentration at 24 h: 0.64 ± 0.24 ng/mL
[3]
  HDL-cholesterol, Change (%): 5%
  LDL-cholesterol, Change (%): −24%
  MDA-LDL, Change (%): −25%
  RLP cholesterol, Change (%): −22%
  Total cholesterol, Change (%): −14%
  Triglyceride, Change (%): −16%
[3]; 20 mg day^−1 oral, 2 weeks
  HDL-cholesterol, After 2 weeks: 61 ± 2.8 mg/dL
  LDL-cholesterol, After 2 weeks: 88 ± 4.0 mg/dL
  MDA-LDL, After 2 weeks: 85 ± 6.7 U l^−1
  RLP cholesterol, After 2 weeks: 3.2 ± 0.3 mg/dL
  Triglyceride, After 2 weeks: 87 ± 9.1 mg/dL
  Total cholesterol, After 2 weeks: 165 ± 4.5 mg/dL
SmgGDS [4]; healthy volunteers
  increase of SmgGDS in leukocytes, average of the 20 volunteers: about 1.4 times

## CC(C)c1c(C(=O)Nc2ccccc2)c(-c2ccccc2)c(-c2ccc(F)cc2)n1CC[C@@H](O)C[C@@H](O)CC(=O)O [atorvastatin]
SmgGDS [5]
  SmgGDS expression level in HUVEC: increased SmgGDS expression in HUVEC in a concentration-dependent manner
SmgGDS [6]
  cytoplasmic SmgGDS level: increased the cytoplasmic SmgGDS level
Racl [7]
  Racl expression level in whole cells: decreased Racl expression level in whole cells
[8]; [11]
  AngII-induced production of ROS: decreased the AngII-induced production of ROS
[1]; AngII-infused SmgGDS+/+ mice
  Systolic blood pressure: 146.7 ± 7.6 mmHg
  Body weight: 27.5 ± 1.1 g
  HDL cholesterol: 76.3 ± 6.8 mg/dL
  LDL-cholesterol: 13.7 ± 1.6 mg/dL
  Total cholesterol: 98.3 ± 7.7 mg/dL
  Triglyceride: 67.0 ± 11.0 mg/dL
[1]; AngII-infused SmgGDS+/− mice
  Systolic blood pressure: 140.4 ± 4.4 mmHg
  Body weight: 26.9 ± 0.5 g
  HDL cholesterol: 81.9 ± 4.8 mg/dL
  LDL-cholesterol: 13.6 ± 1.8 mg/dL
  Total cholesterol: 102.3 ± 6.9 mg/dL
  Triglyceride: 81.4 ± 20.1 mg/dL
[3]
  HDL-cholesterol, Change (%): 0%
  LDL-cholesterol, Change (%): −46%
  MDA-LDL, Change (%): −38%
  RLP cholesterol, Change (%): −35%
  Total cholesterol, Change (%): −30%
  Triglyceride, Change (%): −33%
[3]; 20 mg day^−1 oral, 2 weeks
  HDL-cholesterol, After 2 weeks: 60 ± 2.7 mg/dL
  LDL-cholesterol, After 2 weeks: 64 ± 3.4 mg/dL
  MDA-LDL, After 2 weeks: 73 ± 4.5 U l^−1
  RLP cholesterol, After 2 weeks: 2.6 ± 0.1 mg/dL
  Triglyceride, After 2 weeks: 73 ± 6.5 mg/dL
  Total cholesterol, After 2 weeks: 138 ± 3.8 mg/dL
[3]; normal healthy adult volunteers, 20 mg day^−1 oral, 2 weeks
  concentration level of total cholesterol and of LDL-cholesterol in blood: reduced the concentration level of total cholesterol and that of LDL-cholesterol in blood
SmgGDS [4]; healthy volunteers, 20 mg day^−1, 2 weeks, vs pre-administration level, n=20
  SmgGDS expression in leukocytes in circulating blood: significantly increased
SmgGDS [4]; healthy volunteers
  increase of SmgGDS in leukocytes, average of the 20 volunteers: about 1.5 times
SmgGDS [4]; the 4 volunteers without increase at 10 mg pravastatin, after switching from pravastatin to atorvastatin
  increase in SmgGDS: 3 volunteers out of the above 4 volunteers showed an increase of SmgGDS
Racl [9]
  Racl activity in circulating leucocytes: significantly inhibit Racl activity
RhoA/Rho-kinase
  RhoA/Rho-kinase activity in circulating leucocytes: without suppressing the RhoA/Rho-kinase activity

## O=c1[nH]ccc2c(S(=O)(=O)N3CCCNCC3)cccc12 [HF, hydroxyfasudil]
SmgGDS [5]
  SmgGDS expression level in HUVEC: did not increase the SmgGDS expression level

## CC(C)C[C@@H](C=O)NC(=O)[C@H](CC(C)C)NC(=O)[C@H](CC(C)C)NC(=O)OCc1ccccc1 [MG-132] (Cbz-Leu-Leu-Leu-aldehyde)
Racl [10]; HUVEC co-treated with atorvastatin and MG-132
  effect of MG-132 on statin-triggered decrease of Racl expression in the nucleus: inhibited the decreased Racl expression level triggered by atorvastatin in the nucleus

## Cn1cc(C2=C(c3ccc(Cl)cc3Cl)C(=O)NC2=O)c2ccccc21 [SB216763]
SmgGDS [5]
  SmgGDS expression level in HUVEC: increased the SmgGDS expression level in a concentration-dependent manner

## CC(C)=CCC/C(C)=C/CC/C(C)=C/COP(=O)(O)OP(=O)(O)O [FPP, farnesyl pyrophosphate]
SmgGDS [5]
  inhibition of the statin-induced increase in SmgGDS expression level: neither FPP nor GGPP inhibited the increase in SmgGDS expression level by statins

## CC(C)=CCC/C(C)=C/CC/C(C)=C/CC/C(C)=C/COP(=O)(O)OP(=O)(O)O [GGPP, geranylgeranyl pyrophosphate]
SmgGDS [5]
  inhibition of the statin-induced increase in SmgGDS expression level: neither FPP nor GGPP inhibited the increase in SmgGDS expression level by statins

## O=C(O)C[C@H](O)C[C@H](O)/C=C/c1c(C2CC2)nc2ccccc2c1-c1ccc(F)cc1 [pitavastatin]
SmgGDS [5]
  SmgGDS expression level in HUVEC: increased SmgGDS expression in HUVEC in a concentration-dependent manner
SmgGDS [6]
  cytoplasmic SmgGDS level: increased the cytoplasmic SmgGDS level
[8]; SmgGDS siRNA-transfected HUVEC
  AngII-induced production of ROS: The same results were also obtained
[8]; [11]
  AngII-induced production of ROS: The same results were also obtained
Racl [10]; HUVEC nucleus fraction, 24 h, atorvastatin 10 μM, pitavastatin 1 μM
  intra-nuclear Racl level: decreased the intra-nuclear Racl level
